Measured values reported in US4644006A, “Substituted 3,4-diamino-1,2,5-thiadiazoles having histamine H2 -receptor antagonist activity” (Bristol-Myers Company, priority 1984, dated 1987).
Where two headings read alike, the source gives them in different places.

Experiments:
[1] = molecular target: T1, histamine H2-receptors (isolated guinea pig right atria) (Cavia porcellus, UniProt P47747); experiment: Histamine H2-receptor antagonism, isolated guinea pig right atria assay; design: estimated dissociation constant KB: unit not given here; details: for effect on histamine or dimaprit dose-response curves: at the concentrations utilized, 30-minute incubation
T1 construct: The spontaneously beating right atrium was dissected free from other tissues; from tissue; host or cells: isolated spontaneously beating right atrium of male Hartley guinea pigs
T1 sequence (P47747 whole entry): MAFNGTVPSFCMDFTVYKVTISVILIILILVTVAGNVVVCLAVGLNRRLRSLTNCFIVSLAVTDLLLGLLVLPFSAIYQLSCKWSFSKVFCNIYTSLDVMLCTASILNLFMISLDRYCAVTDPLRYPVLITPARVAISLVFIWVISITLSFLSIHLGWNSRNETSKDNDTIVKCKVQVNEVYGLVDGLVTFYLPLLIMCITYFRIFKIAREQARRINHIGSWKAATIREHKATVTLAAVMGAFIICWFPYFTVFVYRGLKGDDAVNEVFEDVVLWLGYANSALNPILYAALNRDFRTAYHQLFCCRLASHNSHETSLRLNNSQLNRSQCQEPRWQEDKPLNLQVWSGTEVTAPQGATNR
Protocol: Subsequent investigations by Hughes and Coret, Proc. Soc. […] Black et al., Agents and Actions, 3, 133 (1973) and Brimblecombe et al., Fed. […] The present comparative studies were carried out using a modification of the procedure reported by Reinhardt et al., Agents and Actions, 4, 217 (1974).
The spontaneously beating right atrium was dissected free from other tissues and a silk thread (4-0) attached to each end.

[2] = test system: gastric acid secretion (Heidenhain pouch dog); experiment: Gastric antisecretory activity in the histamine-stimulated Heidenhain pouch dog; type: in vivo; details: for ED50: Canis lupus familiaris, 0.5 h, read-out: ED50 i.v.
Protocol: Prior to surgery, hematology and blood chemistry profiles are obtained and an assessment made as to the general health of selected female dogs. Dogs are vaccinated with Tissue Vax 5 (DHLP-Pitman-Moore) and housed in general animal quarters for four weeks' observation so incipient diseases may become apparent. Dogs are fasted with water ad libitum 24 hours prior to surgery.
Anesthesia is induced with Sodium Pentothal (Abbott) 25-30 mg/kg iv. Subsequent anesthesia is maintained with methoxyflurane (Pitman-Moore). A mid-line linea alba incision from xiphoid to umbilicus provides good exposure and ease of closure. The stomach is pulled up into the operative field, the greater curvature stretched out at multiple points and clamps placed along the selected line of incision. The pouch is made from the corpus of the stomach so that true parietal cell juice is obtained. About 30% of the corpus volume is resected. The cannula is made of light-weight,biologically-inert material such as nylon, Delrin or surgical stainless steel with dimensions and attachments after DeVito and Harkins [J. Appl. Physiol., 14, 138 (1959)]. Post-operatively, dogs are medicated with antibiotics and an analgesic. They are allowed 2-3 months for recovery. Experiments are carried out in the following way: Dogs are fasted overnight (18 hours) with water ad libitum prior to each experiment. The dogs are placed in a sling and a saphenous vein cannulated for drug administration. Histamine as the base (100 μg/kg/hr) and chlorpheniramine maleate (0.25 mg/kg/hr) are infused continuously (in a volume of 6 ml/hr) with a Harvard infusion pump.
Ninety minutes' infusion are allowed for the dogs to reach a steady state of acid output. At this time the drug or normal saline (control) is administered concomitantly with the secretagogue in a volume of 0.5 ml/kg over a 30 second period. Infusion of the secretagogue is continued and 15 minute samples of the gastic juice are taken for 4.5 hours. Each sample is measured to the nearest 0.5 ml and tritratable acidity is determined by titrating a 1 ml sample to pH 7.0 with a 0.2N NaOH, employing a fully automatic titration system (Metrohm). Titratable acid output is calculated in microequivalents by multiplying the volume is milliliters by the acid concentration in microequivalents per milliliter.
Results at peak activity after bolus intravenous administration of test compound are expressed as percent inhibition relative to control readings. Dose-response curves were constructed utilizing at least three dose levels with a minimum of three dogs at each dose level. […]

[3] = test system: histamine H2-receptors; details: Black et al., Nature, 236, 385 (1972); cited from earlier work
[4] = test system: peptic ulcer disease; details: Gray et al., Lancet, 1, 8001 (1977); cited from earlier work

Structure (SMILES) | effect on histamine or dimaprit dose-response curves [1] | estimated dissociation constant KB ([1]; estimated by method of Furchgott, KB = concentration of antagonist/dose ratio-1, ± S.E., N = 5 preparations) | Potency Ratio (cimetidine = 1.0) ([1]; from KB, isolated guinea pig right atria, cimetidine = 1.0) | ED50 ([2]; intravenous dose giving 50% inhibition at time of peak activity, i.e. 30 minutes post dose, parentheses: 95% confidence limits, histamine 100 μg/kg/hr) [µmol/kg] | Potency Ratio (cimetidine = 1.0) ([2]; i.v., Heidenhain pouch dog, cimetidine = 1.0, Probit analysis) | duration of action of antisecretory activity ([2]; intravenous dog model, relative to cimetidine) | type of antagonism at histamine H2-receptors [3] | ED50 ([2]; iv) [µmol/kg] | clinical effectiveness in peptic ulcer disease [4]
N=C(N)Nc1nc(CSCCNc2nsnc2N)cs1 [Example 1, 3-Amino-4-{2-[(2-guanidinothiazol-4-yl)methylthio]ethylamino}-1,2,5-thiadiazole] | Parallel shifts in dose-response curves were obtained without depressing the maximal response | 0.0094 ± 0.0018 | 44 | 0.082 | 32 | prolonged duration of action relative to cimetidine | – | – | –
CNC(=S)NCCCCc1cnc[nH]1 [burimamide] | – | – | – | – | – | – | competitive antogonist | – | –
CN/C(=N/CCSCc1nc[nH]c1C)NC#N [cimetidine, reference compound] | Parallel shifts in dose-response curves were obtained without depressing the maximal response | – | – | – | – | – | – | 2.6 | effective therapeutic agent in the treatment of peptic ulcer disease
